Measurements published in patent publication US11279683B2, “Thiophene derivatives as antiviral agents” (ENYO PHARMA, priority 2016, dated 2022).
Like-named read-outs stand apart in the source and are kept apart here.

What was measured:
[1] = tested on: H1N1 (influenza A/New Caledonia/20/99); test: microbe, parasite or virus in culture; type: cell-based
p62 = p62 expression measurement; type: cell-based
Excerpt: The autophagy-inducing effect has been assessed by LC3 lipidation assay and by p62 expression measurement.

[2] = Influenza A virus, H1N1, A549, 48 h

Row | Structure (SMILES) | IC50 [1, 2] | p62 expression* (p62) | IC50 [1]
1 | O=C(Nc1ccc(Cl)cc1)c1c(NC(=O)C2CCCCC2C(=O)O)sc2cscc12 (stereo not drawn) [Compound 42, 2-[[3-[(4-Chlorophenyl)carbamoyl]thieno[3,4-b]thiophen-2-yl]carbamoyl]cyclohexanecarboxylic acid] | 3.08 µM | down | –
2 | O=C(Nc1ccc(Cl)cc1)c1c(NC(=O)C2CCCCC2C(=O)O)sc2ccccc12 (stereo not drawn) [Compound 41, 2-[[3-[(4-Chlorophenyl)carbamoyl]benzothiophen-2-yl]carbamoyl]cyclohexane carboxylic acid] | 3.53 µM | down | –
3 | CC(C)c1cc(C(=O)Nc2ccccc2)c(NC(=O)C2CCCCC2C(=O)O)s1 (stereo not drawn) [Compound 72, 2-[[5-Isopropyl-3-(phenylcarbamoyl)-2-thienyl]carbamoyl]cyclohexanecarboxylic acid] | 9.92 µM | – | –
4 | N#Cc1ccc(NC(=O)c2c(NC(=O)C3CCCCC3C(=O)O)sc3c2CCC3)cc1 (stereo not drawn) [Compound 28, 2-[[3-[(4-Cyanophenyl)carbamoyl]-5,6-dihydro-4H-cyclopenta[b]thiophen-2-yl]carbamoyl]cyclohexanecarboxylic acid] | 15.9 µM | – | –
5 | Cc1cc(Cl)ccc1NC(=O)c1c(NC(=O)C2CCCCC2C(=O)O)sc2c1CCC2 (stereo not drawn) [Compound 7, 2-[[3-[(4-Chloro-2-methyl-phenyl)carbamoyl]-5,6-dihydro-4H-cyclopenta[b]thiophen-2-yl]carbamoyl]cyclohexanecarboxylic acid] | 10.1 µM | – | –
6 | O=C(Nc1ccc2c(c1)OCO2)c1c(NC(=O)C2CCCCC2C(=O)O)sc2c1CCC2 (stereo not drawn) [Compound 3, 2-[[3-(1,3-Benzodioxol-5-ylcarbamoyl)-5,6-dihydro-4H-cyclopenta[b]thiophen-2-yl]carbamoyl]cyclohexanecarboxylic acid] | 10.3 µM | – | –
7 | O=C(Nc1ccc(F)c(F)c1)c1c(NC(=O)C2CCCCC2C(=O)O)sc2c1CCC2 (stereo not drawn) [Compound 16, 2-[[3-[(3,4-Difluorophenyl)carbamoyl]-5,6-dihydro-4H-cyclopenta[b]thiophen-2-yl]carbamoyl]cyclohexanecarboxylic acid] | 10.4 µM | – | –
8 | O=C(Nc1ccc(C(F)(F)F)nc1)c1c(NC(=O)C2CCCCC2C(=O)O)sc2c1CCC2 (stereo not drawn) [Compound 32, 2-[[3-[[6-(Trifluoromethyl)-3-pyridyl]carbamoyl]-5,6-dihydro-4H-cyclopenta[b]thiophen-2-yl]carbamoyl]cyclohexanecarboxylic acid] | 22 µM | – | –
9 | O=C(Nc1ccc(Cl)cc1)c1c(NC(=O)C2C3CCC(O3)C2C(=O)O)sc2c1CCC2 (stereo not drawn) [Compound 51, 2-[[3-[(4-Chlorophenyl)carbamoyl]-5,6-dihydro-4H-cyclopenta[b]thiophen-2-yl]carbamoyl]-7-oxabicyclo[2.2.1]heptane-3-carboxylic acid] | 29.7 µM | – | –
10 | O=C(Nc1ccc(OC(F)(F)F)cc1)c1c(NC(=O)C2CCCCC2C(=O)O)sc2c1CCC2 (stereo not drawn) [Compound 20, 2-[[3-[[4-(Trifluoromethoxy)phenyl]carbamoyl]-5,6-dihydro-4H-cyclopenta[b]thiophen-2-yl]carbamoyl]cyclohexanecarboxylic acid] | 6.48 µM | – | –
11 | O=C(Nc1ccc(Cl)nc1)c1c(NC(=O)C2CCCCC2C(=O)O)sc2c1CCC2 (stereo not drawn) [Compound 2, 2-[[3-[(6-Chloro-3-pyridyl)carbamoyl]-5,6-dihydro-4H-cyclopenta[b]thiophen-2-yl]carbamoyl]cyclohexanecarboxylic acid] | 18 µM | – | –
12 | CS(=O)(=O)N[C@@H]1CCCC[C@@H]1C(=O)Nc1sc2c(c1C(=O)Nc1ccc(Cl)cc1)CCC2 [Compound 85, N-(4-chlorophenyl)-2-[[(1S,2R)-2-(methanesulfonamido)cyclohexanecarbonyl]amino]-5,6-dihydro-4H-cyclopenta[b]thiophene-3-carboxamide] | 5.6 µM | – | –
13 | O=C(O)CCC(=O)Nc1sc2c(c1C(=O)Nc1ccc(Cl)cc1)CCC2 [Compound 50, 4-[[3-[(4-Chlorophenyl)carbamoyl]-5,6-dihydro-4H-cyclopenta[b]thiophen-2-yl]amino]-4-oxo-butanoic acid] | 33.2 µM | – | –
14 | O=C(Nc1ccc(Cl)cc1)c1c(NC(=O)[C@H]2CCCC[C@H]2C(=O)NO)sc2c1CCC2 (stereo in doubt) [Compound 90, N-(4-chlorophenyl)-2-[[2-(hydroxycarbamoyl)cyclohexanecarbonyl]amino]-5,6-dihydro-4H-cyclopenta[b]thiophene-3-carboxamide] | 9 µM | – | –
15 | O=C(Nc1ccc(Cl)cc1)c1c(NC(=O)C2CCCCC2C(=O)O)sc2c1CSC2 (stereo not drawn) [Compound 38, 2-[[3-[(4-Chlorophenyl)carbamoyl]-4,6-dihydrothieno[3,4-b]thiophen-2-yl]carbamoyl]cyclohexanecarboxylic acid] | 6.44 µM | – | –
16 | O=C(Nc1ccc(Cl)cc1)c1c(NC(=O)C2CCCCC2C(=O)O)sc2c1CCS2 (stereo not drawn) [Compound 40, 2-[[4-[(4-Chlorophenyl)carbamoyl]-2,3-dihydrothieno[2,3-b]thiophen-5-yl]carbamoyl] cyclohexanecarboxylic acid] | 7.35 µM | – | –
17 | CC(C)(CC(=O)O)CC(=O)Nc1sc2c(c1C(=O)Nc1ccc(Cl)cc1)CCC2 [Compound 47, 5-[[3-[(4-Chlorophenyl)carbamoyl]-5,6-dihydro-4H-cyclopenta[b]thiophen-2-yl]amino]-3,3-dimethyl-5-oxo-pentanoic acid] | 22.7 µM | – | –

Row | Structure (SMILES) | IC50 [1, 2] | p62 expression* (p62) | IC50 [1]
18 | O=C(NC1CCC(F)(F)CC1)c1c(NC(=O)C2CCCCC2C(=O)O)sc2c1CCC2 (stereo not drawn) [Compound 18, 2-[[3-[(4,4-Difluorocyclohexyl)carbamoyl]-5,6-dihydro-4H-cyclopenta[b]thiophen-2-yl]carbamoyl]cyclohexanecarboxylic acid] | 33 µM | – | –
19 | O=C(Cc1cnccn1)Nc1sc2c(c1C(=O)Nc1ccc(Cl)cc1)CCC2 [Compound 78, N-(4-chlorophenyl)-2-[(2-pyrazin-2-ylacetyl)amino]-5,6-dihydro-4H-cyclopenta[b]thiophene-3-carboxamide] | 1 µM | – | –
20 | O=C(Nc1ccc(CO)cc1)c1c(NC(=O)C2CCCCC2C(=O)O)sc2c1CCC2 (stereo not drawn) [Compound 19, 2-[[3-[[4-(Hydroxymethyl)phenyl]carbamoyl]-5,6-dihydro-4H-cyclopenta[b]thiophen-2-yl]carbamoyl]cyclohexanecarboxylic acid] | 30.8 µM | – | –
21 | CCc1c(C)sc(NC(=O)C2CCCCC2C(=O)O)c1C(=O)Nc1ccc(Cl)cc1 (stereo not drawn) [Compound 59, 2-[[3-[(4-Chlorophenyl)carbamoyl]-4-ethyl-5-methyl-2-thienyl]carbamoyl]cyclohexanecarboxylic acid] | 53.5 µM | – | –
22 | O=C(O)CC1(CC(=O)Nc2sc3c(c2C(=O)Nc2ccc(Cl)cc2)CCC3)CCCC1 [Compound 45, 2-[1-[2-[[3-[(4-Chlorophenyl)carbamoyl]-5,6-dihydro-4H-cyclopenta[b]thiophen-2-yl]amino]-2-oxo-ethyl]cyclopentyl]acetic acid] | 8.1 µM | – | –
23 | O=C(Nc1ccc(Cl)cc1)c1c(NC(=O)C2CCCC(C(=O)O)C2)sc2c1CCC2 (stereo not drawn) [Compound 99, 3-[[3-[(4-chlorophenyl)carbamoyl]-5,6-dihydro-4H-cyclopenta[b]thiophen-2-yl]carbamoyl]cyclohexanecarboxylic acid] | 16.6 µM | – | –
24 | CO[C@H]1CC[C@H](NC(=O)c2c(NC(=O)C3CCCCC3C(=O)O)sc3c2CCC3)CC1 (stereo partly drawn) [Compound 8, 2-[[3-[(Trans-4-methoxycyclohexyl)carbamoyl]-5,6-dihydro-4H-cyclopenta[b]thiophen-2-yl]carbamoyl]cyclohexanecarboxylic acid] | 27.4 µM | – | –
25 | Cc1ccc(NC(=O)c2c(NC(=O)C3CCCCC3C(=O)O)sc3c2CCC3)cc1C (stereo not drawn) [Compound 1, 2-[[3-[(3,4-Dimethylphenyl)carbamoyl]-5,6-dihydro-4H-cyclopenta[b]thiophen-2-yl]carbamoyl]cyclohexanecarboxylic acid] | 7.78 µM | – | –
26 | O=C(Nc1ccc(Cl)cc1)c1c(NC(=O)C2CCCCC2C(=O)O)sc2c1CCC2 (stereo not drawn) [Compound 57, 2-[[3-[(4-Chlorophenyl)carbamoyl]-5,6-dihydro-4H-cyclopenta[b]thiophen-2-yl]carbamoyl]cyclohexane-cis-carboxylic acid] | – | down | 7.18 µM
27 | CS(=O)(=O)N1CCCCC1C(=O)Nc1sc2c(c1C(=O)Nc1ccc(Cl)cc1)CCC2 (stereo not drawn) [Compound 100, N-[3-[(4-chlorophenyl)carbamoyl]-5,6-dihydro-4H-cyclopenta[b]thiophen-2-yl]-1-methylsulfonyl-piperidine-2-carboxamide] | 16.6 µM | – | –
28 | O=C(Nc1ccc(Cl)cc1)c1c(NC(=O)C2CC=CCC2C(=O)O)sc2c1CCC2 (stereo not drawn) [Compound 48, 6-[[3-[(4-Chlorophenyl)carbamoyl]-5,6-dihydro-4H-cyclopenta[b]thiophen-2-yl]carbamoyl]cyclohex-3-ene-1-carboxylic acid] | 11.2 µM | – | –
29 | CC(C)(C)c1ccc(NC(=O)c2c(NC(=O)C3CCCCC3C(=O)O)sc3c2CCC3)cc1 (stereo not drawn) [Compound 21, 2-[[3-[(4-tert-Butylphenyl)carbamoyl]-5,6-dihydro-4H-cyclopenta[b]thiophen-2-yl]carbamoyl]cyclohexanecarboxylic acid] | 4.68 µM | – | –
30 | CS(=O)(=O)N1CCOCC1C(=O)Nc1sc2c(c1C(=O)Nc1ccc(Cl)cc1)CCC2 (stereo not drawn) [Compound 93, N-[3-[(4-chlorophenyl)carbamoyl]-5,6-dihydro-4H-cyclopenta[b]thiophen-2-yl]-4-methylsulfonyl-morpholine-3-carboxamide] | 12.7 µM | – | –
31 | Cc1cccc(NC(=O)c2c(NC(=O)C3CCCCC3C(=O)O)sc3c2CCCC3)c1 (stereo not drawn) [Compound 69, 2-[[3-(m-Tolylcarbamoyl)-4,5,6,7-tetrahydrobenzothiophen-2-yl]carbamoyl]cyclohexanecarboxylic acid] | 13.9 µM | – | –
32 | O=C(NCc1ccc(Cl)cc1)c1c(NC(=O)C2CCCCC2C(=O)O)sc2c1CCC2 (stereo not drawn) [Compound 5, 2-[[3-[(4-Chlorophenyl)methylcarbamoyl]-5,6-dihydro-4H-cyclopenta[b]thiophen-2-yl]carbamoyl]cyclohexanecarboxylic acid] | 10.7 µM | – | –
33 | O=C(O)C=CC(=O)Nc1sc2c(c1C(=O)Nc1ccc(Cl)cc1)CCC2 [Compound 43, 4-[[3-[(4-Chlorophenyl)carbamoyl]-5,6-dihydro-4H-cyclopenta[b]thiophen-2-yl]amino]-4-oxo-but-2-enoic acid] | 33.2 µM | – | –
